Test [1] deals with AChE (Electrophorus electricus, UniProt O42275). The test is described as follows: Enzyme kinetic study. Type of test: biochemical, electric eel.
Test [2] concerns the target acetylcholinesterase (AChE, E.C. 3.1.1.7, Type V-S) (Electrophorus electricus, UniProt O42275). The test is described as follows: AChE inhibition, modified Ellman method. Type of test: biochemical, electric eel. The settings on record: read-out: % Inhibition at 50 µM, AChE, Mean ± SE.

These results are taken from article PMC12130451 (Scientific Reports, 2025).

Structures are written as SMILES.

Usually Ki stands for the equilibrium dissociation constant of an inhibitor or competing ligand from its target. Read a high Ki as weaker binding. In general, inhibition refers to the percentage by which the read-out fell short of the control.

Sequence of AChE (O42275 24-633): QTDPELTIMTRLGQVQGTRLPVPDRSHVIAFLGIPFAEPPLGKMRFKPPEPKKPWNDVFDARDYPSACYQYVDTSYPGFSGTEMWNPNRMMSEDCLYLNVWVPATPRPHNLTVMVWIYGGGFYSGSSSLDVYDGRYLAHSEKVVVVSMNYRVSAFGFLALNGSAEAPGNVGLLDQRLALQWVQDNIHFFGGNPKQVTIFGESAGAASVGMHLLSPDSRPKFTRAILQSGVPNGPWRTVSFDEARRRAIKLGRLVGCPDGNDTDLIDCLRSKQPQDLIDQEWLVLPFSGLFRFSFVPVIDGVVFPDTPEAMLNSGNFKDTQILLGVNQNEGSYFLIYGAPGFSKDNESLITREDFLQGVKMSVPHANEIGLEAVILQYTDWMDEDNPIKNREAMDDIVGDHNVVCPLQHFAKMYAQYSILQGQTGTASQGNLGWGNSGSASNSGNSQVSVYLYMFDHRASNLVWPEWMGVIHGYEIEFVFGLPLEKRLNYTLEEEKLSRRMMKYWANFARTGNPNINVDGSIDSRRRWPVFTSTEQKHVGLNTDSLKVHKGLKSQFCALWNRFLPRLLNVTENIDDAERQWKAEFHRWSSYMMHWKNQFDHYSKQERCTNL
Sequence of acetylcholinesterase (AChE, E.C. 3.1.1.7, Type V-S) (O42275 24-633): as above

Take `CC(C)(C)OC(=O)NC1CCCN(C(=O)/C=C/c2ccccc2Cl)C1` (stereo not shown) [5b, tert-butyl (E)-(1-(3-(2-chlorophenyl)acryloyl)piperidin-3-yl)carbamate]: the inhibition constant Ki in test [1] turned out to be 10 µM. The “secondary inhibition constant (Kis)” value in test [1] (AChE, 1/Vmax vs inhibitor concentration) came out at 36.16 µM. In addition, the type of inhibition result in test [1] (AChE, Lineweaver-Burk plot) is given as “mix-type inhibition”.

As for `COc1ccc(OC)c(/C=C/C(=O)N2CCCC(NC(=O)OC(C)(C)C)C2)c1` (stereo not shown) [5o, tert-butyl (E)-(1-(3-(2,5-dimethoxyphenyl)acryloyl)piperidin-3-yl)carbamate], the inhibition at 50 µM in test [2] came to 44.1%.
